# Experimental data taken from ChEMBL document CHEMBL5696442, “Discovery of type II inhibitors of TGFβ-activated kinase 1 (TAK1) and mitogen-activated protein kinase kinase kinase kinase 2 (MAP4K2)” (J Med Chem, 2015).
# Activity calls are given as the source filed them. The calls are words filed in the database; no cut-off is given here.
# Assays:
# [1] = target: Rho-associated protein kinase (Homo sapiens) (UniProt O75116+Q13464); test: Inhibition of ROCK1/2 K2 labeling site in human Huh-7 cells at 10 uM by KiNativ Profiling analysis relative to control; format: cell-based
# [2] = target: Serine/threonine-protein kinase SMG1 (Homo sapiens) (UniProt Q96Q15); test: Inhibition of SMG1 ATP labeling site in human Huh-7 cells at 1 uM by KiNativ Profiling analysis relative to control; format: cell-based
# [3] = target: Cyclin-dependent kinase 14 (Homo sapiens) (UniProt O94921); test: Inhibition of PFTAIRE1 Lys2 labeling site in human A-375 cells at 0.05 uM by KiNativ Profiling analysis relative to control
# [4] = target: Ribosomal protein S6 kinase alpha-3 (Homo sapiens) (UniProt P51812); test: Inhibition of RSK2 Domain 2 K1 labeling site in human Huh-7 cells at 1 uM by KiNativ Profiling analysis relative to control; format: cell-based
# [5] = target: Tyrosine-protein kinase CSK (Homo sapiens, UniProt P41240); test: Inhibition of CSK ACT labeling site harbouring VSDFGLTKEASSTQDTGKLPVK in human A-375 cells at 5 uM by KiNativ Profiling analysis relative to control; format: cell-based
# [6] = target: T1, Serine/threonine-protein kinase Chk1 (Homo sapiens) (UniProt O14757); test: Inhibition of CHK1 in human Huh-7 cells at 10 uM by KiNativ Profiling analysis relative to control; format: cell-based
# T1 sequence (whole entry): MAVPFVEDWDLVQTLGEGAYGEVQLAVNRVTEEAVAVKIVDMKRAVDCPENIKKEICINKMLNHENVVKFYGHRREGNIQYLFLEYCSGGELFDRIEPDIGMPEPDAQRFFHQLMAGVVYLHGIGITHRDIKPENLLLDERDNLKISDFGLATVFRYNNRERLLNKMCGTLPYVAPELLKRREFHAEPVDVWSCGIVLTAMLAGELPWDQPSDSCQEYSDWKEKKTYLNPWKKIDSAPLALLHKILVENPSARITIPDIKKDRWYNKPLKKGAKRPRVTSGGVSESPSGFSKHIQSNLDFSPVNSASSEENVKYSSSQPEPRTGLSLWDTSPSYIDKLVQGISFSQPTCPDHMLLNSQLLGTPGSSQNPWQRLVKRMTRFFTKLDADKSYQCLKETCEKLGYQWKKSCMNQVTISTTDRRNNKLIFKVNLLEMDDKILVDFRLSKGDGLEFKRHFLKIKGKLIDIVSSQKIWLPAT
# [7] = target: cAMP-dependent protein kinase catalytic subunit PRKX (Homo sapiens) (UniProt P51817); test: Inhibition of PRKX (unknown origin) at 10 uM by Ambit Kinomescan binding assay
# [8] = target: Protein kinase C beta type (Homo sapiens) (UniProt P05771); test: Inhibition of PKCb Lys2 labeling site in human Huh-7 cells at 1 uM by KiNativ Profiling analysis relative to control; format: cell-based
# [9] = target: Fibroblast growth factor receptor 3 (Homo sapiens) (UniProt P22607); test: Inhibition of FGFR3 (unknown origin) at 1 uM by Ambit Kinomescan binding assay relative to control; values are per cent of control
# [10] = target: Mitogen-activated protein kinase 14 (Homo sapiens, UniProt Q16539); test: Inhibition of p38 alpha Lys2 labeling site in human A-375 cells at 0.5 uM by KiNativ Profiling analysis relative to control; format: cell-based
# [11] = target: Tyrosine-protein kinase JAK1 (Homo sapiens) (UniProt P23458); test: Inhibition of JAK1 in human A-375 cells at 0.05 uM by KiNativ Profiling analysis relative to control; format: cell-based
# [12] = target: 1-phosphatidylinositol 3-phosphate 5-kinase (Homo sapiens) (UniProt Q9Y2I7); test: Inhibition of PIP5K3 ATP labeling site in human A-375 cells at 5 uM by KiNativ Profiling analysis relative to control; format: cell-based
# [13] = target: T2, Serine/threonine-protein kinase TAO2 (Homo sapiens) (UniProt Q9UL54); test: Inhibition of TAOK2 (unknown origin) at 1 uM by Ambit Kinomescan binding assay relative to control
# T2 sequence (whole entry): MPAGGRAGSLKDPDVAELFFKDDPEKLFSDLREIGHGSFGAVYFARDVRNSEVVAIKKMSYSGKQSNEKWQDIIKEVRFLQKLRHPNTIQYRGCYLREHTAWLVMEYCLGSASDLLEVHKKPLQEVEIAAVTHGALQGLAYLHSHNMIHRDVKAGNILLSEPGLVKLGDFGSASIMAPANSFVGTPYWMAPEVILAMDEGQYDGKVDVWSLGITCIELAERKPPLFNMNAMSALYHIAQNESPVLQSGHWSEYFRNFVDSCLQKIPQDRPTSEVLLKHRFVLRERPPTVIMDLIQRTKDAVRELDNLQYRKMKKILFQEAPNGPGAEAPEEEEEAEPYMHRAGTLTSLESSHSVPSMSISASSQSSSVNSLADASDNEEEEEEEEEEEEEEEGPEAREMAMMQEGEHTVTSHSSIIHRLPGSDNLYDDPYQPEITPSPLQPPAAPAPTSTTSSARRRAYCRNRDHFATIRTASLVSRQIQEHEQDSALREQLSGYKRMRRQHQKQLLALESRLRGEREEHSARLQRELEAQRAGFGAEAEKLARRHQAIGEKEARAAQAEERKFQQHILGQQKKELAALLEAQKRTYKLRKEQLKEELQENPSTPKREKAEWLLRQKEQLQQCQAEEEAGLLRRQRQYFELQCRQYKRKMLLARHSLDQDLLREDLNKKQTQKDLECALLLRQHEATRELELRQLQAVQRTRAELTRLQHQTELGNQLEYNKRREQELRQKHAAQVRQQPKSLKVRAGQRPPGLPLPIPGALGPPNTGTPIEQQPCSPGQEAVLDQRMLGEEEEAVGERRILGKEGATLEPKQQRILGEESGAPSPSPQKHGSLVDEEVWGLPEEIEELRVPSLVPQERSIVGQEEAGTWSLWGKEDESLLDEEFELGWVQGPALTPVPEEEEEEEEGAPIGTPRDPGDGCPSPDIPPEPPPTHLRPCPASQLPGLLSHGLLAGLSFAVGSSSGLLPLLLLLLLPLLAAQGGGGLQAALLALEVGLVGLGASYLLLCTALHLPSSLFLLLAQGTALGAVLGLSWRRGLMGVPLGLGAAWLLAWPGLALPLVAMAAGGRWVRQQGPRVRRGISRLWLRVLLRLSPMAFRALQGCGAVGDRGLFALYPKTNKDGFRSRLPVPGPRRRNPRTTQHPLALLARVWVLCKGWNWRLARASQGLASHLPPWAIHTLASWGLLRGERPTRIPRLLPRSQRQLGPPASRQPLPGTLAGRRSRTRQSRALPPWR
# Sequence of Mitogen-activated protein kinase 14 (Q16539 whole entry): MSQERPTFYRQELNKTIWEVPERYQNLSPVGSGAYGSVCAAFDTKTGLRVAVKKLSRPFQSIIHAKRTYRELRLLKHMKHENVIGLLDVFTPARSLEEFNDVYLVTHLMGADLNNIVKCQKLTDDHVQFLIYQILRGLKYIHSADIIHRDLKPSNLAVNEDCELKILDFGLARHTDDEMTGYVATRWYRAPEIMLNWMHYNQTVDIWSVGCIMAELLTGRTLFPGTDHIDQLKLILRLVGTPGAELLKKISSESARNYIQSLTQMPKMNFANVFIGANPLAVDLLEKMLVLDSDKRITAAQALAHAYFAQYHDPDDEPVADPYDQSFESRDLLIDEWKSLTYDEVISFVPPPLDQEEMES
# Sequence of Rho-associated protein kinase (Homo sapiens) (O75116 whole entry, looked up): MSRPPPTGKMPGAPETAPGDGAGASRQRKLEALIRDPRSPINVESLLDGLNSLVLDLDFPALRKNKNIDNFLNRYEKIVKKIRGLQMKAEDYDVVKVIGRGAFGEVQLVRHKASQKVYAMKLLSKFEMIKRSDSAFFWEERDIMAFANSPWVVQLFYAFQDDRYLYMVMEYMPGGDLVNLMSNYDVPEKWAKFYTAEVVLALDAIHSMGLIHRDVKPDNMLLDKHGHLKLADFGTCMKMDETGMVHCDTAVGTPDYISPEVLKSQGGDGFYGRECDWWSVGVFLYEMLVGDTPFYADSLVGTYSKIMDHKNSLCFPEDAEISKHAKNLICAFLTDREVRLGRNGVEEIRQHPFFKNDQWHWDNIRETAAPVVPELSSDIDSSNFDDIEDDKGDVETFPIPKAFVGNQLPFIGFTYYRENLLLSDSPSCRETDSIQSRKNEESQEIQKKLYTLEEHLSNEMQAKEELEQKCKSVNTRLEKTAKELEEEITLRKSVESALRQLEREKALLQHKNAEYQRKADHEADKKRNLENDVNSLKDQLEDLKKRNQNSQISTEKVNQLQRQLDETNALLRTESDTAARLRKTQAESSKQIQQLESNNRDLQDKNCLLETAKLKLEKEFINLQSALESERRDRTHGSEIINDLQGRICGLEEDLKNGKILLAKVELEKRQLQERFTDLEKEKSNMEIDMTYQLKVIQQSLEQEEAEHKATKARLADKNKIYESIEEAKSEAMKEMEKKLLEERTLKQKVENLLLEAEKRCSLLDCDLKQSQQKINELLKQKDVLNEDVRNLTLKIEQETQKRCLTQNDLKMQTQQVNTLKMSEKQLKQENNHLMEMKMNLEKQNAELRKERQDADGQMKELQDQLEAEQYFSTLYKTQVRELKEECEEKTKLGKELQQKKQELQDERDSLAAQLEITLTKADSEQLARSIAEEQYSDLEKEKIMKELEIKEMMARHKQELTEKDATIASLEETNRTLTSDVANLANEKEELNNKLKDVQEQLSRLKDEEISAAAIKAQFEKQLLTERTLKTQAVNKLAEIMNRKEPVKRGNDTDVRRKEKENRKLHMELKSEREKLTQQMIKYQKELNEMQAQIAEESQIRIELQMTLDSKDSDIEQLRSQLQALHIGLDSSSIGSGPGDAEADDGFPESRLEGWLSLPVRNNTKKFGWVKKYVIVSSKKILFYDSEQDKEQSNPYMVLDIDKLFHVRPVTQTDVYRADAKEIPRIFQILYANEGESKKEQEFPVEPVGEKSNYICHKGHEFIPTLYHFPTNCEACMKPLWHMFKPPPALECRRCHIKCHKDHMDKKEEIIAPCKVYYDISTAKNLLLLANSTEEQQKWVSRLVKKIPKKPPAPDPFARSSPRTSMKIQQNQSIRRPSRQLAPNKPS
# Sequence of Rho-associated protein kinase (Homo sapiens) (Q13464 whole entry, looked up): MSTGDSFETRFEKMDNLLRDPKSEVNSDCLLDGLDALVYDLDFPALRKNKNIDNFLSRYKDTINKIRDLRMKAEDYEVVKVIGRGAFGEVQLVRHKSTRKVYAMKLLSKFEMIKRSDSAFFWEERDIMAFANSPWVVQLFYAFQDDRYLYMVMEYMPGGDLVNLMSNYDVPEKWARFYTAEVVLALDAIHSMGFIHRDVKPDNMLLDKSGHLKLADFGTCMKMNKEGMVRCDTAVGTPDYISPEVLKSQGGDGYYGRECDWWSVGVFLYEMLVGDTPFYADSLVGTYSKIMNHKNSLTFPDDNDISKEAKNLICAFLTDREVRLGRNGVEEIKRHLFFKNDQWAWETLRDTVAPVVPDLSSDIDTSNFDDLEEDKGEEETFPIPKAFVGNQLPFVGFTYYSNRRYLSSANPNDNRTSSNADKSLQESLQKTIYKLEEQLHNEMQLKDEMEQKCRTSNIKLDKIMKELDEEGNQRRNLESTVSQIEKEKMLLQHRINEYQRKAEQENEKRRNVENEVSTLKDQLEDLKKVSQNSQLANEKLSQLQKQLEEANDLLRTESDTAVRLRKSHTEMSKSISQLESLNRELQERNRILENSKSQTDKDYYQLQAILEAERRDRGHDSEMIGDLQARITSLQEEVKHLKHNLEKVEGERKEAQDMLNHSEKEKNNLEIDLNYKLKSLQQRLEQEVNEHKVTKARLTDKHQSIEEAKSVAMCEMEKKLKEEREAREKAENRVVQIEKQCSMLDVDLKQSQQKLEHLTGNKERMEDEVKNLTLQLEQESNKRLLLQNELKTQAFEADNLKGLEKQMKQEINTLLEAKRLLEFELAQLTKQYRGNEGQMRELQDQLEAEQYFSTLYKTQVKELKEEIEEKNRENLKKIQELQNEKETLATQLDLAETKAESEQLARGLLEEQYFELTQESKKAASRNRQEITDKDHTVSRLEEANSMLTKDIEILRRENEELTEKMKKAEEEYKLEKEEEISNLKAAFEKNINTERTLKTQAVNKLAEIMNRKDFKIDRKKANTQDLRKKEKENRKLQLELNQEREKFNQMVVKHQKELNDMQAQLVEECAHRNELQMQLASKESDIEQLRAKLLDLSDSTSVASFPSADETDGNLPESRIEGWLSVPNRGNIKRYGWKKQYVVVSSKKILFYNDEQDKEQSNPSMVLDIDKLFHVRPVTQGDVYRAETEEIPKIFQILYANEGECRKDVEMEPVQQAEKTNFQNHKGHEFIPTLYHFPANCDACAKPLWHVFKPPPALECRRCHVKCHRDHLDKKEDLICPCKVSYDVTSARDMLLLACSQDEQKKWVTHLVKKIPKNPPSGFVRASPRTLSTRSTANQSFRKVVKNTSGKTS
# Sequence of Cyclin-dependent kinase 14 (Homo sapiens) (O94921 whole entry, looked up, the tested form may be a part): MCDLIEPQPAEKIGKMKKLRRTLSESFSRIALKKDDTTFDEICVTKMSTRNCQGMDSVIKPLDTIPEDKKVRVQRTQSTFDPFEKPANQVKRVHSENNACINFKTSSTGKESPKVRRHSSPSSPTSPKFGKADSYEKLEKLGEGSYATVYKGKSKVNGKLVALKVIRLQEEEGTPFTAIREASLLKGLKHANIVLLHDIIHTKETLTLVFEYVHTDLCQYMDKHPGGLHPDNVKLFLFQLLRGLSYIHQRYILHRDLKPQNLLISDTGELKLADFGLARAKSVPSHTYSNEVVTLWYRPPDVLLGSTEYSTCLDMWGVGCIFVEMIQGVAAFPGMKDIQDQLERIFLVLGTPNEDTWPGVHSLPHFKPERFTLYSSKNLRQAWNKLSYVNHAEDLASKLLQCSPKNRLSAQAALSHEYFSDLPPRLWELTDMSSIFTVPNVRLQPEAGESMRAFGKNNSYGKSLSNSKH
# Sequence of cAMP-dependent protein kinase catalytic subunit PRKX (Homo sapiens) (P51817 whole entry): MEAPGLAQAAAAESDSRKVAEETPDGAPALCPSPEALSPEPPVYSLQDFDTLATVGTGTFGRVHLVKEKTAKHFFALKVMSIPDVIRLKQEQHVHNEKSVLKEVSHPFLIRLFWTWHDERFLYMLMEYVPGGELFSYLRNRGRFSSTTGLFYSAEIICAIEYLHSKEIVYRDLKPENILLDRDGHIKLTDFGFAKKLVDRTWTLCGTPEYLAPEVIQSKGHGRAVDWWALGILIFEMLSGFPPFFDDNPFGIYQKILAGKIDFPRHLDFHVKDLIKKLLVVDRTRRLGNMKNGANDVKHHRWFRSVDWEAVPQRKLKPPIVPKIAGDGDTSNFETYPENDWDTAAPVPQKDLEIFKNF
# Sequence of Tyrosine-protein kinase CSK (P41240 2-450 limits assumed): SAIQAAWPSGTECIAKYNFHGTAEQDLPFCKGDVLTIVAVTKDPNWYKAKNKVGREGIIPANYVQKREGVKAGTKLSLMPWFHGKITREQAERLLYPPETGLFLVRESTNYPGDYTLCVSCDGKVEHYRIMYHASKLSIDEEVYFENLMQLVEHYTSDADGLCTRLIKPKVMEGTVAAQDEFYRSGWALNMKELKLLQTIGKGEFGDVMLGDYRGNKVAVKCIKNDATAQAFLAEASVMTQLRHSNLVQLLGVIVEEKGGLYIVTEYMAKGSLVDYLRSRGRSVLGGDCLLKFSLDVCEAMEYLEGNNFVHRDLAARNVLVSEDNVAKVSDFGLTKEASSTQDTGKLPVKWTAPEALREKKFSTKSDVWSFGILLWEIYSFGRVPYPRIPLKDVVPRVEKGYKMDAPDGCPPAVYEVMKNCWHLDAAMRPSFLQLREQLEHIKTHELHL
# Sequence of Protein kinase C beta type (Homo sapiens) (P05771 2-671 limits assumed): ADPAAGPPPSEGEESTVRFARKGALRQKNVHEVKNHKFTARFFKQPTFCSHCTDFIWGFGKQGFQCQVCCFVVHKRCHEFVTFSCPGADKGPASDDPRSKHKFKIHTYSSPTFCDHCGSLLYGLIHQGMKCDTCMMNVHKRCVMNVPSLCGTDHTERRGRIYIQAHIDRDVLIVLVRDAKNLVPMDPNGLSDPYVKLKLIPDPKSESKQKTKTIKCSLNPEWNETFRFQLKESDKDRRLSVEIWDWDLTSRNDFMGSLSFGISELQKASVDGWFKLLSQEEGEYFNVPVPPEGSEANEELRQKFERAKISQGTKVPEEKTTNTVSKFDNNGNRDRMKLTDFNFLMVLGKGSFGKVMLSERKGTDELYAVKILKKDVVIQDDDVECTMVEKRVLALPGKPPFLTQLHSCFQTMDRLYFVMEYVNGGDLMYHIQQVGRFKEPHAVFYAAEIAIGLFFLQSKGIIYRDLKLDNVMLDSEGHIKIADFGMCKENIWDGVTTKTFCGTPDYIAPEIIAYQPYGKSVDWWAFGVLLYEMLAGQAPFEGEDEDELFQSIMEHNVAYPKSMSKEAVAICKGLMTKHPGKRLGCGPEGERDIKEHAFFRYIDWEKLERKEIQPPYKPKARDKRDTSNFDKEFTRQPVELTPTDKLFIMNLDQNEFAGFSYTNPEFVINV
structure (smiles),measurement,setting,value
CCN1CCN(Cc2ccc(NC(=O)c3ccc(C)c(Oc4ccnc5[nH]ccc45)c3)cc2C(F)(F)F)CC1,inhibition,[1],4.1%
same,inhibition,[2],13%
same,inhibition,[3],0.6%
same,inhibition,[4],inactive
same,inhibition,[5],78.2%
same,inhibition,[6],12.3%
same,inhibition,[7],inactive
CNc1cc(Oc2cc(C(=O)Nc3cc(N4CCN(C)CC4)cc(C(F)(F)F)c3)ccc2C)ncn1,inhibition,[8],64.8%
CCN1CCN(Cc2ccc(NC(=O)c3ccc(C)c(/C=C/c4cnc5[nH]ccc5c4OC)c3)cc2C(F)(F)F)CC1,residual activity,[9],13%
same,inhibition,[10],59.5%
same,inhibition,[11],12.3%
same,inhibition,[12],7.6%
same,inhibition,[13],16%
